Like-named read-outs stand apart in the source and are kept apart here.
Tests used:
[1] = tested on: Vero cells; experiment: Vero cell toxicity assay (alamarBlue); assay type: cell-based, green monkey; settings: 4 days; minimum value of the 95% CI, except BNZ (mean (SD))
Description: Human erythrocytes were purified from B+ Rh+ blood samples and maintained at 4 °C in incomplete RPMI medium. Vero (green monkey kidney epithelial cells), LLC-MK2 (Rhesus monkey kidney epithelial cells), and HepG2 (human liver epithelial cells) cultures were cultivated in DMEM supplemented with 1% penicillin–streptomycin (PS) and 10% heat-inactivated fetal bovine serum (FBS) at 37 °C, 5% CO2, and >95% humidity, as described in [31]. HepG2 cells were also supplemented with 10% non-essential amino acids. Vero and MK2 cells were passaged twice per week at 1:12 ratios, while HepG2 cells were passaged at a 1:8 ratio.
Vero and HepG2 cells were detached, centrifuged, and resuspended in DMEM without phenol red. Cell viability was checked upon cell counting with trypan blue staining. Then, Vero and HepG2 cells were diluted at a concentration of 5 × 10^5 and 3.2 × 10^5 cells per mL, respectively, before adding 100 µL per well to the 96-well plate. Each run contained its own negative (untreated cells) and positive (medium alone) controls. Plates were incubated at 37 °C for 4 days in the case of Vero, or 2 in the case of HepG2 cells. Assay readout was made by adding 50 µL per well of a PBS solution containing 10% alamarBlue reagent (Thermo Fisher Scientific); then, plates were incubated for another 6 h at 37 °C, before recording the fluorescence intensity with a Tecan Infinite M Nano+ reader (excitation: 530 nm, emission: 590 nm).
(§1) Absorbance values derived from the anti-T. cruzi assays and fluorescence values from the anti-P. falciparum and cell toxicity assays were normalized to the controls. In the primary screening at three fixed doses, the compounds’ inhibitory activity was expressed as a percentage of the negative control (100% parasitic growth). In dose–response assays, the compounds’ IC50 and TC50 values were determined with GraphPad Prism 7 software (version 7.00, 2016), using a non-linear regression analysis model defined by the following equation: Y=100 ÷(1+10^((LogIC50−X)×HillSlope))

[2] = tested on: P. falciparum 3D7; experiment: P. falciparum dose-response growth inhibition assay (FACS, SYTO 11); assay type: cell-based; settings: P. falciparum 3D7, 48 h, mean (SD)
Description: (§2) Apicomplexan parasite cultures were maintained at 3% hematocrit under an atmosphere of 37 °C in 93% N2, 5% CO2, and 2% O2, following standard methods. Synchronized cultures were obtained via 5% sorbitol lysis.
(§3) P. falciparum growth was primarily analyzed under 3 different concentrations (100, 10, and 1 mM) of the 81 compounds. Conditions were tested in triplicate for every concentration, and the test was repeated when the standard deviation was above 10% for any concentration. Z-values varied between 0.83 and 0.98 in the different plates analyzed. Selected compounds (12.3% potential hit rate) were further analyzed via standard growth inhibition assays, carried out as previously described in [54]. Briefly, parasitemia was adjusted to 1–1.3%, with >90% rings after sorbitol synchronization. Two hundred microliters of parasite culture were plated in 96-well microplates and incubated for 48 h at 37 °C in the presence of decreasing concentrations of the tested compounds, in triplicate. Parasitemia was determined by fluorescence-assisted cell sorting (FACS). Non-infected RBCs and samples containing parasitized RBCs (including controls with DMSO as carrier solvent) were diluted in PBS to a final concentration of ~1–10 × 10^6 cells/mL. The cell suspension was stained with SYTO 11 (0.5 mM stock in DMSO, Thermo Fisher Scientific, Waltham, MA, USA), to a final concentration of 0.5 μM. Samples were analyzed in a Becton Dickinson FACSCalibur. Sample excitation was carried out using a 488-nm, air-cooled argon-ion laser at a power of 15 mW, using forward and side scatter to gate the RBC population, and SYTO 11 green fluorescence (530 nm, FITC filter) was collected in a logarithmic scale. The single-cell population was selected on a forward–side scattergram, and the green fluorescence from this population was analyzed. Parasitemia was expressed as the number of parasitized cells per 100 erythrocytes.
as §1

[3] = tested on: T. cruzi Tulahuen strain expressing β-galactosidase; experiment: T. cruzi primary screening at three fixed concentrations; assay type: cell-based; settings: for activity at 100 µM / activity at 1 µM / activity at 10 µM: Trypanosoma cruzi, TULAHUEN; for activity at 100 µM: read-out: Primary screening, growth inhibition values at 100 µM; for activity at 1 µM: read-out: Primary screening, growth inhibition values at 1 µM; for activity at 10 µM: read-out: Primary screening, growth inhibition values at 10 µM
Description: (§4) T. cruzi parasites from the Tulahuen strain (discrete typing unit (DTU) VI) expressing β-galactosidase were maintained in culture by the infection of LLC-MK2 cells in DMEM supplemented with 2% FBS and 1% penicillin–streptomycin–glutamine (PSG), as described in [52]. When free-swimming trypomastigotes were released to the culture medium, they were centrifuged for 7 min at 2500 rpm and allowed to swim out of the pellet. Trypomastigotes were used to maintain the parasite cycle, or for the performance of the antiparasitic assays.
[…] Conditions were tested in triplicate for every concentration. Z-values varied between 0.81 and 0.92 in the different plates analyzed. Selected compounds (34.6% potential hit rate) were further analyzed via standard growth inhibition assays. The Z-values of dose–response assays correlated with those previously reported. For both assays, Vero cells and trypomastigotes from the Tulahuen T. cruzi strain expressing β-galactosidase were harvested, centrifuged, and resuspended in DMEM without phenol red supplemented with 1% PSG, 2% FBS, 1 mM sodium pyruvate, and 25 mM HEPES. Vero cells and trypomastigotes were counted, diluted at a concentration of 1 × 10^6 cells/mL each, and mixed 1:1 (v/v). Then, 100 μL of that mixture was added per well to the plates already containing the compounds. Each well contained 50,000 host cells and 50,000 parasites, i.e., multiplicity of infection (MOI) = 1. BNZ was used as control of maximal drug growth inhibition in each round, whereas each plate contained its own negative control (maximum parasite growth; Vero cells plus parasites without drugs) and positive control (minimum parasite growth; trypomastigote forms alone marking an enzymatic zero time or baseline galactosidase activity). After four days at 37 °C, 50 µL of a PBS solution containing 0.25% NP40 and 500 µM chlorophenol red-β-D-galactopyranoside (CPRG) substrate were added per well [32]. Plates were incubated at 37 °C for 4 h, and their absorbance read out at 590 nm using an Epoch Gene5 spectrophotometer.
as §1

[4] = tested on: P. falciparum 3D7; experiment: P. falciparum primary screening at three fixed concentrations; assay type: cell-based; settings: average of at least three experiments; for activity at 1 µM / activity at 10 µM / activity at 100 µM: Plasmodium falciparum, read-out: Primary screening, parasite growth relative to the negative control; for activity at 1 µM: 3D7, compound at 1 µM; for activity at 10 µM: 3D7, compound at 10 µM; for activity at 100 µM: 3D7, compound at 100 µM
Description: as §2
as §3, with “P. falciparum growth was primarily analyzed under 3 different concentrations (100, 10, and 1 mM) of the 81 compounds.” left out
as §1

[5] = tested on: T. cruzi intracellular amastigotes; experiment: Antiamastigote growth inhibition assay; assay type: cell-based; settings: intracellular amastigotes in Vero cells; mean (SD); read-out: T. cruzi IC50 b (antiamastigote assay)
Description: Vero cells were seeded in T-175 flasks (5 × 10^6 cells per flask) in DMEM supplemented with 1% penicillin–streptomycin and 10% FBS, and cultured for 24 h. Then, cells were washed once with PBS, and free-swimming trypomastigotes (1 × 10^7 trypomastigotes per flask; MOI = 1) in assay medium were added and allowed 18 h to infect. After that, infected cell monolayers were washed with PBS and detached. Cells were counted and diluted to a concentration of 5 × 10^5 cells per mL, before adding 100 µL per well to test plates already containing the drugs dispensed as described above. In all cases, we included BNZ as control drug, and each plate contained its own negative (Vero cells and parasites) and positive (Vero cells) controls.
as §1

[6] = tested on: T. cruzi Tulahuen strain expressing β-galactosidase; experiment: anti-T. cruzi dose-response growth inhibition assay (Vero cells plus trypomastigotes, CPRG readout); assay type: cell-based
Description: as §4
T. cruzi growth was primarily analyzed under three different concentrations ([…]) of the 81 compounds. Conditions were tested in triplicate for every concentration. Z-values varied between 0.81 and 0.92 in the different plates analyzed. Selected compounds (34.6% potential hit rate) were further analyzed via standard growth inhibition assays. The Z-values of dose–response assays correlated with those previously reported. For both assays, Vero cells and trypomastigotes from the Tulahuen T. cruzi strain expressing β-galactosidase were harvested, centrifuged, and resuspended in DMEM without phenol red supplemented with 1% PSG, 2% FBS, 1 mM sodium pyruvate, and 25 mM HEPES. Vero cells and trypomastigotes were counted, diluted at a concentration of 1 × 10^6 cells/mL each, and mixed 1:1 (v/v). Then, 100 μL of that mixture was added per well to the plates already containing the compounds. Each well contained 50,000 host cells and 50,000 parasites, i.e., multiplicity of infection (MOI) = 1. BNZ was used as control of maximal drug growth inhibition in each round, whereas each plate contained its own negative control (maximum parasite growth; Vero cells plus parasites without drugs) and positive control (minimum parasite growth; trypomastigote forms alone marking an enzymatic zero time or baseline galactosidase activity). After four days at 37 °C, 50 µL of a PBS solution containing 0.25% NP40 and 500 µM chlorophenol red-β-D-galactopyranoside (CPRG) substrate were added per well [32]. Plates were incubated at 37 °C for 4 h, and their absorbance read out at 590 nm using an Epoch Gene5 spectrophotometer.
as §1

[7] = Plasmodium falciparum, 3D7, 48 h
[8] = compound at 1 µM, average of at least three independent experiments
[9] = compound at 10 µM, average of at least three independent experiments
[10] = Vero cells plus trypomastigotes, MOI 1, four days, mean (SD), read-out: T. cruzi IC50 a (anti-T. cruzi assay)

SMILES: COc1ccccc1-n1cc(COc2ncnc3c2nc(-c2ccccc2)n3N(C)C)nn1 [Compound 33]
- Vero Cells TC50 [1]: >300 µM
- IC50 [2]: 19.2 µM
- IC50 [2, 7]: ~20 µM
- activity at 100 µM [3]: 21.5%
- activity at 1 µM [3, 8]: 91.5%
- activity at 10 µM [3, 9]: 63.3%
- activity at 1 µM [4]: 96.3%
- activity at 10 µM [4]: 85.4%
- activity at 100 µM [4]: 22.5%

SMILES: c1ccc(-c2nc3c(OCc4cn(Cc5cscn5)nn4)ncnc3n2N2CCCCC2)cc1 [Compound 76]
- Vero Cells TC50 [1]: >500 µM
- IC50 [2]: 18.3 µM
- IC50 [2, 7]: ~20 µM
- activity at 100 µM [3]: 49.8%
- activity at 1 µM [3, 8]: 89.4%
- activity at 10 µM [3, 9]: 88.2%
- activity at 1 µM [4]: 95.7%
- activity at 10 µM [4]: 84.3%
- activity at 100 µM [4]: 15.2%

SMILES: CN1CCN(n2c(-c3ccccc3)nc3c(OCc4cn(Cc5cscn5)nn4)ncnc32)CC1 [Compound 84]
- Vero Cells TC50 [1]: >70 µM
- IC50 [2]: 28 µM
- Primary screening, growth inhibition values at 1 µM [3, 8]: 93.615
- Primary screening, growth inhibition values at 10 µM [3, 9]: 93.94
- Primary screening, parasite growth relative to the negative control ([4]; compound at 1 µM): 96.34%
- Primary screening, parasite growth relative to the negative control ([4]; compound at 10 µM): 88.61%
- Primary screening, parasite growth relative to the negative control ([4]; compound at 100 µM): 13.94%

SMILES: COc1cccc(-n2cc(COc3ncnc4c3ncn4C(C)(C)C)nn2)c1 [Compound 88]
- Vero Cells TC50 [1]: >180 µM
- IC50 [2]: 65.3 µM
- IC50 [5]: 35.4 µM
- IC50 [6, 10]: 12.7 µM
- Primary screening, parasite growth relative to the negative control ([4]; compound at 1 µM): 92.13%
- Primary screening, parasite growth relative to the negative control ([4]; compound at 10 µM): 81.69%
- Primary screening, parasite growth relative to the negative control ([4]; compound at 100 µM): 21.43%

SMILES: C#CCOc1ncnc2c1ncn2N1CCN(C)CC1 [Compound 93]
- Vero Cells TC50 [1]: >2000 µM
- IC50 [5]: 218 µM
- IC50 [6, 10]: 1.42 µM
- Primary screening, parasite growth relative to the negative control ([4]; compound at 1 µM): 107.86%
- Primary screening, parasite growth relative to the negative control ([4]; compound at 10 µM): 104.00%
- Primary screening, parasite growth relative to the negative control ([4]; compound at 100 µM): 105.52%

SMILES: COc1cccc(-n2cc(COc3ncnc4c3ncn4N3CCN(C)CC3)nn2)c1 [Compound 94]
- Vero Cells TC50 [1]: >60 µM
- IC50 [5]: 75.1 µM
- IC50 [6, 10]: 0.92 µM
- Primary screening, parasite growth relative to the negative control ([4]; compound at 1 µM): 128.84%
- Primary screening, parasite growth relative to the negative control ([4]; compound at 10 µM): 125.18%
- Primary screening, parasite growth relative to the negative control ([4]; compound at 100 µM): 104.00%

SMILES: c1ccc(COc2ncnc3c2ncn3Cc2ccccc2)cc1 [MJ11]
- IC50 ([6]; Trypanosoma cruzi, TULAHUEN, Vero, anti-T. cruzi IC50 of non-progressed compounds, read-out: Dose-response assay IC50): 17.7 µM
- activity at 100 µM [3]: 6.06%
- activity at 1 µM [3, 8]: 91.4%
- activity at 10 µM [3, 9]: 85.5%
- activity at 1 µM [4]: 103%
- activity at 10 µM [4]: 102%
- activity at 100 µM [4]: 31.8%
